Reference: ChEMBL document CHEMBL1149126, “3-phenyl-6-(2-pyridyl)methyloxy-1,2,4-triazolo[3,4-a]phthalazines and analogues: high-affinity gamma-aminobutyric acid-A benzodiazepine receptor ligands with alpha 2, alpha 3, and alpha 5-subtype binding selectivity over alpha 1” (J Med Chem, 2004)

What was measured:
[1] = molecular target: T1, GABA-A receptor; alpha-5/beta-3/gamma-2 (Homo sapiens, UniProt P18507+P28472+P31644); experiment: Binding affinity for human GABA-A receptor alpha-5-beta-3-gamma-2 subunits in L(tk-) cells; format: cell-based
T1 sequence (P18507 whole entry): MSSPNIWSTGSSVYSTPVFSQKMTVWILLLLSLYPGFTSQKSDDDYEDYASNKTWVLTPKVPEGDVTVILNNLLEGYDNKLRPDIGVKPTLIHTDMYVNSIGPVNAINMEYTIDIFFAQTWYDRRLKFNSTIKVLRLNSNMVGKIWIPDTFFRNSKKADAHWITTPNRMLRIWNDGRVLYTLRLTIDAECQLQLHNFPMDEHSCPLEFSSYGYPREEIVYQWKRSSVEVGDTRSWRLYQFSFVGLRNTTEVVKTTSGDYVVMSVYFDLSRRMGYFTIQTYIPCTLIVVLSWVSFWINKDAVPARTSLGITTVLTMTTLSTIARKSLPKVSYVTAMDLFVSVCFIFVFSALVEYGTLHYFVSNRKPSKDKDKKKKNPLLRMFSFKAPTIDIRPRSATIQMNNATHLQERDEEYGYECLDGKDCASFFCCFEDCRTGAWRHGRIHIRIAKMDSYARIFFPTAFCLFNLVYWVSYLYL
T1 sequence (P28472 whole entry): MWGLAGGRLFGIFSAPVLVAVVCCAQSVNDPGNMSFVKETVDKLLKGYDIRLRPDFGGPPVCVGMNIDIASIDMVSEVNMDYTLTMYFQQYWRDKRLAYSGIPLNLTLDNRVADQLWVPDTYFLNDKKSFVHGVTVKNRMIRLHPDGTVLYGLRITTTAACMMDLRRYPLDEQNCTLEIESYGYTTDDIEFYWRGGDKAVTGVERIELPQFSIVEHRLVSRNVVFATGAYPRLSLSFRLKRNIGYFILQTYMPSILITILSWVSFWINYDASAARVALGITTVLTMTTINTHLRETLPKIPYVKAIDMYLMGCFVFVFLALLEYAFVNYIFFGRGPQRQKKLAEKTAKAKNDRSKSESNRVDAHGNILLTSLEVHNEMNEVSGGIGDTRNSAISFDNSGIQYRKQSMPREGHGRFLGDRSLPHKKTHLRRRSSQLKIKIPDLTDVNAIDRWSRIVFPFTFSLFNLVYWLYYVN
T1 sequence (P31644 whole entry): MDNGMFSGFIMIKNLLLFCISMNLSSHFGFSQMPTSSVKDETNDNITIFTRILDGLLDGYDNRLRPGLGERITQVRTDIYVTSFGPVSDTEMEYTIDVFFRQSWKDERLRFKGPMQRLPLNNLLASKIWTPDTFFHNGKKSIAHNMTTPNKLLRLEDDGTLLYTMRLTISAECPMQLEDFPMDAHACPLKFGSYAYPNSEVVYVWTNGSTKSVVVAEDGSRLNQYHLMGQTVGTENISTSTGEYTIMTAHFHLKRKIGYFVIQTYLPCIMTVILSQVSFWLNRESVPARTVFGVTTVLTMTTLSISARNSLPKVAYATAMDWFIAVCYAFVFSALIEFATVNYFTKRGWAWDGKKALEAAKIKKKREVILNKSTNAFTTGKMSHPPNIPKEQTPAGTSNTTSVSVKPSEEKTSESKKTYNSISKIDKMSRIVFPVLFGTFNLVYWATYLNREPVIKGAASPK

[2] = molecular target: T2, GABA-A receptor; alpha-1/beta-3/gamma-2 (Homo sapiens, UniProt P14867+P18507+P28472); experiment: Binding affinity for human GABA-A receptor alpha-1-beta-3-gamma-2 subunits in L(tk-) cells
T2 sequence (P14867 whole entry): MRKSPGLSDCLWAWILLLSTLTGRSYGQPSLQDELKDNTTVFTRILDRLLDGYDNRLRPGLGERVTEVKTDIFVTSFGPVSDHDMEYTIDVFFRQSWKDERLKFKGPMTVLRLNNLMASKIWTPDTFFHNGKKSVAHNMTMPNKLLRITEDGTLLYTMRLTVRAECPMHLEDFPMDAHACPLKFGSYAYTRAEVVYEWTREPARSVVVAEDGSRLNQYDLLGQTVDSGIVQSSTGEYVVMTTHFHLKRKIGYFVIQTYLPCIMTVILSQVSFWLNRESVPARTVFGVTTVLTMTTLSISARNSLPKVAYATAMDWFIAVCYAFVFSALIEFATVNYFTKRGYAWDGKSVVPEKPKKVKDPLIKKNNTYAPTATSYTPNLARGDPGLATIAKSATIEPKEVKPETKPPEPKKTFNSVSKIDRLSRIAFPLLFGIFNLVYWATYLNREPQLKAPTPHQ
T2 sequence (P18507 whole entry): T1 sequence (P18507 whole entry)
T2 sequence (P28472 whole entry): T1 sequence (P28472 whole entry)

[3] = molecular target: T3, GABA-A receptor; alpha-3/beta-3/gamma-2 (Homo sapiens, UniProt P18507+P28472+P34903); experiment: Binding affinity for human GABA-A receptor alpha-3-beta-3-gamma-2 subunits in L(tk-) cells; format: cell-based
T3 sequence (P18507 whole entry): T1 sequence (P18507 whole entry)
T3 sequence (P28472 whole entry): T1 sequence (P28472 whole entry)
T3 sequence (P34903 whole entry): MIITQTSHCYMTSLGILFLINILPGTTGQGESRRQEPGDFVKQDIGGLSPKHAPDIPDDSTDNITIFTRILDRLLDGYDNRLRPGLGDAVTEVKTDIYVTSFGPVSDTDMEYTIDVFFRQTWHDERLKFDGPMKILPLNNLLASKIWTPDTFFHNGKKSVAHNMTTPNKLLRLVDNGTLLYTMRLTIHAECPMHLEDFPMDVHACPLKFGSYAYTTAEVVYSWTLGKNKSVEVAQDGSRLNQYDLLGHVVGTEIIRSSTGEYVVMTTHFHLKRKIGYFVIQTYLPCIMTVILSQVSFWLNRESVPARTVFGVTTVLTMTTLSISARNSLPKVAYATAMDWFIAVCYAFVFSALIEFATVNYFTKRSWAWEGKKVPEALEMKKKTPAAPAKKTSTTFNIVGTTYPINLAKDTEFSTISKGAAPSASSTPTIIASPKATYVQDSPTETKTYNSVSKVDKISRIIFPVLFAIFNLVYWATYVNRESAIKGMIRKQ

[4] = molecular target: T4, GABA-A receptor; alpha-2/beta-3/gamma-2 (Homo sapiens, UniProt P18507+P28472+P47869); experiment: Binding affinity for human GABA-A receptor alpha-2-beta-3-gamma-2 subunits in L(tk-) cells; format: cell-based
T4 sequence (P18507 whole entry): T1 sequence (P18507 whole entry)
T4 sequence (P28472 whole entry): T1 sequence (P28472 whole entry)
T4 sequence (P47869 whole entry): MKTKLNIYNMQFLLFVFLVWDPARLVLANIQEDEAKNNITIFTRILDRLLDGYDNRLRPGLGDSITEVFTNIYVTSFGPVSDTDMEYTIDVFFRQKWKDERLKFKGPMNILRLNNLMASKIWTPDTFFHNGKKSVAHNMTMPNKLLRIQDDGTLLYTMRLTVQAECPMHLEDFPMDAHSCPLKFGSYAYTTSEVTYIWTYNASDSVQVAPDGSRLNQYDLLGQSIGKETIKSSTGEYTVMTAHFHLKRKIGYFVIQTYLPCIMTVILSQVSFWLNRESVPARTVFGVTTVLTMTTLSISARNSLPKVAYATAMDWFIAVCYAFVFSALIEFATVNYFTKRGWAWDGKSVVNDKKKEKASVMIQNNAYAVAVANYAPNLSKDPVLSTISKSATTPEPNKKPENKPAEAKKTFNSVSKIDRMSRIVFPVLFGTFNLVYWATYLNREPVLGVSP

[5] = molecular target: T5, GABA-A receptor; alpha-3/beta-3/gamma-2 (Homo sapiens) (UniProt P18507+P28472+P34903); experiment: Maximum percent change compared to GABA EC20 against GABA-A alpha-3-beta-3-gamma-2 receptor; format: functional
[6] = molecular target: T6, GABA-A receptor; alpha-1/beta-3/gamma-2 (Homo sapiens) (UniProt P14867+P18507+P28472); experiment: Maximum percent change compared to GABA EC20 against GABA-A alpha-1-beta-3-gamma-2 receptor; format: functional
[7] = molecular target: T6, GABA-A receptor; alpha-1/beta-3/gamma-2 (Homo sapiens); experiment: Partial agonistic activity against GABA-A receptor alpha-1-beta-3-gamma-2 subunits; format: functional
[8] = molecular target: GABA-A receptor; alpha-2/beta-3/gamma-2 (Homo sapiens) (UniProt P18507+P28472+P47869); experiment: Partial agonistic activity against GABA-A receptor alpha-2-beta-3-gamma-2 subunits; format: functional
[9] = molecular target: GABA-A receptor; alpha-5/beta-3/gamma-2 (Homo sapiens) (UniProt P18507+P28472+P31644); experiment: Efficacy at human GABA-A receptor alpha-5-beta-3-gamma-2 subunits
[10] = molecular target: T5, GABA-A receptor; alpha-3/beta-3/gamma-2 (Homo sapiens); experiment: Partial agonistic activity against GABA-A receptor alpha-3-beta-3-gamma-2 subunits; format: functional

Structure (SMILES) | Ki [1] | Ki [2] | Ki [3] | Ki [4] | Efficacy [5] | Efficacy [6] | Activity [7] | Activity [8] | Efficacy [9] | Activity [10]
c1ccc(-c2nnc3c4ccccc4c(OCc4cccnc4)nn23)cc1 | 31 nM | 19 nM | 19 nM | 16 nM | – | – | – | – | – | –
c1ccc(CCCOc2nn3c(-c4ccccc4)nnc3c3ccccc23)cc1 | > 1000 nM | 300 nM | 420 nM | > 1000 nM | – | – | – | – | – | –
CC(C)(C)c1nnc2c3ccccc3c(OCc3ccccn3)nn12 | > 1000 nM | > 1000 nM | > 1000 nM | > 1000 nM | – | – | – | – | – | –
c1ccc(CNc2nn3c(-c4ccccc4)nnc3c3ccccc23)cc1 | > 1000 nM | > 1000 nM | > 1000 nM | > 1000 nM | – | – | – | – | – | –
CN(Cc1ccccc1)c1nn2c(-c3ccccc3)nnc2c2ccccc12 | 240 nM | 500 nM | > 1000 nM | > 1000 nM | – | – | – | – | – | –
c1ccc(-c2nnc3c4ccccc4c(OCCc4ccccn4)nn23)cc1 | 15 nM | 18 nM | 17 nM | 25 nM | – | – | – | – | – | –
Cc1ccc2c(c1)c(OCc1ccccn1)nn1c(-c3ccccc3)nnc21 | 0.64 nM | 2.2 nM | 1.2 nM | 2.2 nM | 27% | 65% | – | – | – | –
CCOC(=O)c1ncn2c1[C@@H]1CCCN1C(=O)c1cc(OC)ccc1-2 | 0.4 nM | 44 nM | 11 nM | 22 nM | – | – | – | – | – | –
Cc1cccc(COc2nn3c(-c4ccccc4)nnc3c3ccccc23)n1 | 2.5 nM | 8.4 nM | 1.2 nM | 8 nM | – | – | 1% | -4% | 11% | -8%
c1ccc(-c2nnc3c4ccccc4c(OCC4CCNCC4)nn23)cc1 | 30 nM | 32 nM | 37 nM | 40 nM | – | – | – | – | – | –
c1ccc(COc2nn3c(-c4ccccc4)nnc3c3ccccc23)cc1 | 38 nM | 280 nM | 41 nM | 16 nM | – | – | – | – | – | –
